Assays:
[1] = Genetic toxicology (reverse mutation, chromosomal aberration, micronucleus)
Method: Protocol No. NB_KDS_ADP1_21 Confidential administration of the test substance to rats at a dose of 50-200 mg/kg daily for 2 weeks, there were no deaths.
As a result of oral administration to rats at doses of 30, 50, 75 and 100 mg/kg once daily for 4 weeks, […]
testis, epididymis and lungs. Renal epithelial hyperplasia and inflammatory cells infiltration in the renal pelvis observed in the male and female dose groups of 75 mg/kg or more, germ cell degeneration/loss and seminiferous tubules atrophy observed in the male dose groups of 75 mg/kg or more, and vacuole/degeneration of outer medullary tubules and basophilic tubules observed in the female dose groups were judged to be adverse effects due to administration of the test substance. Proximal tubular hyaline granules in the kidney, basophilic tubules, testicular germ cell degeneration/loss, and alveolar macrophage aggregation in the lungs(females) were observed even after a 2-week recovery period. Accordingly, in repeated administrations of rats for 4 weeks, the NOAEL(No Observed Adverse Effect Level) was determined to be 50 mg/kg/day for males and 30 mg/kg for females. As a result of repeated oral administrations of 0, 25, 50 or 100 mg/kg/day for 2 weeks to Cynomolgus […]
male dose group of 50 mg/kg/day, and a distal tubule/collecting duct dilatation and papillary duct epithelial cell […]
the NOAEL was judged as 40 mg/kg for both males and females. As a result of the safety pharmacology test, […]
the genetic toxicology, the reverse mutation test, the chromosomal aberration assay, and the micronucleus assay […]
(§1) In a pharmacokinetic study, plasma PK parameters were measured after a single oral administration of […]
a result of measuring excretion into urine, feces, expiration, and bile, 6.9% was excreted in urine and 48.5% in feces, respectively, up to 168 hours after administration. Excretion to air through respiration was about 0.0% until 48 hours after administration, and 44.1% of the administered radioactivity concentration was present in the body (carcass). […]

[2] = tested on: monkey SCI model; assay: Monkey SCI model: tissue sections and immunohistochemistry; format: in vivo, cynomolgus macaques (Macaca fascicularis)
Method: For the nonhuman primate SCI model, female cynomolgus macaques were anesthetized with Zoletil 50 (8–10 mg/kg; Virbac Korea) and isotropy 100. Laminectomy was performed at thoracic level 8 under X-ray guidance, and the SCI model was established using a vessel clip (Micro Serrefine Clamp, 1805501, Fine Science Tools; 60 g pressure, 19 mm) applied for 10 min. After surgery, the monkeys were monitored until full recovery, with precautions taken to prevent hypothermia and dehydration. For pressure ulcers, antibacterial drugs were administered, and sugar therapy was applied as needed.
To determine the appropriate dosing for macaques, interspecies dose translation was performed according to the U.S. FDA’s Guidance for Industry (2005), using body surface area (BSA)-based conversion with species-specific Km values.
On the basis of this calculation, two doses were selected: 3 mg/kg/day (~60% of the HED) for evaluating the minimal effective dose, and 10 mg/kg/day (approximately 2× HED) for assessing upper tolerability and therapeutic margin.
Immunohistochemistry was performed as previously described.[70] The tissue sections were blocked and treated with primary antibodies. After overnight incubation at 4 °C, species-specific fluorescent secondary antibodies were applied for visualization. The tissue sections were then stained with 4’,6-diamidino-2-phenylindole (DAPI) during mounting. This protocol allows a detailed assessment of various cellular markers involved in SCI and recovery processes.

[3] = Blood chemistry and liver function in monkey SCI model; format: in vivo, cynomolgus macaques (Macaca fascicularis)
Method: Blood samples were collected from the animals via the radial or femoral vein at three time points: 2 days, 2 weeks, and 5 weeks post-injury. All the animals were fasted for approximately 16 h prior to each collection, with water provided ad libitum. Approximately 2.0 mL of blood was drawn and placed into tubes without anticoagulant and left at room temperature for at least 90 min. The samples were then centrifuged at 3000 rpm for 10 min at room temperature to separate the serum. Finally, the serum samples were analyzed for creatinine (CREA), alkaline phosphatase (ALP), gamma-glutamyl transpeptidase (GGT), total bilirubin (TBIL), ALB, ALT, and aspartate aminotransferase (AST) levels. These biochemical parameters were measured using a TBA 120FR chemistry analyzer (Toshiba Co.).

[4] = tested on: rat SCI model; assay: Ki67 promoter dual-virus labeling of proliferating cells; format: in vivo, Sprague-Dawley (SD) rats; settings: SCI + KDS 2w, PI 10w
[5] = in vivo; design: species or system SD Rat; settings: rat
Method: Next, we tested whether pharmacological inhibition of MAOB facilitates recovery after SCI. […] The pharmacokinetic (PK) analysis of KDS2010 was performed in mice, rats, and nonhuman primates. […] We substituted the mouse SCI model with a rat SCI model, which has been reported to be better for pharmacological evaluation and closer to human SCI.[21] We performed Basso, Beattie and Bresnahan (BBB) locomotor test[22] to assess the functional recovery once a week for a total of 11 weeks (Fig. 2a). […] In addition to the BBB locomotor test, we performed the ladder rung test by measuring the percentage of hindlimb steps without slipping as rats walked along a horizontal ladder[23] (Fig. 2d, e). […] We then assessed the tissue recovery using EC staining on cross and longitudinal sections of the spinal cord. […]
as §1
dose group and at 4 to 6 hours after administration in the 30 mg/kg dose group. In the elimination phase, the […]
Systemic exposure (AUClast) to the test substance was 30587 and 80770 ng*hr/mL, respectively.
At this time, AUC0-inf was […]
time, AUC0-inf was 192000 ng eq.h/mL. […]

[6] = tested on: APP/PS1 transgenic mice; assay: Cognitive tests in APP/PS1 transgenic mice; format: in vivo, mouse

Compound: CS(=O)(=O)O.C[C@H](NCc1ccc(-c2ccc(C(F)(F)F)cc2)cc1)C(N)=O [KDS2010, (S)-2-(((4’-Trifluoromethylbiphenyl-4-yl)methyl)amino)propanamide methane-sulfonate]
- chromosomal aberration assay [1]: negative
- micronucleus assay [1]: negative
- reverse mutation test [1]: negative
- hematoma and cavity formation at the injury site ([2]; 3 or 10 mpk from the acute phase, PI 5w): significantly reduced
- MAP2 intensity vs SCI + V ([2]; SCI + KDS 3 mpk, PI 5w): tended to increase
- MAP2 intensity vs SCI + V ([2]; SCI + KDS 10 mpk, PI 5w): significantly greater
- astrocytic MAOB ([2]; both KDS treatment groups (3 and 10 mpk), PI 5w): significantly reduced
- pharmacologically active dose (PAD) ([2]; cynomolgus macaques, for 5 weeks): 3 mpk
- signs of hepatic and muscle stress ([3]; 3 mpk): no signs of stress
- creatine kinase (CK) and alanine transaminase (ALT) levels ([3]; 10 mpk, PI 2w): transient increases
- CK and ALT levels ([3]; 10 mpk, PI 5w): returned to normal
- albumin (ALB) levels ([3]; 10 mpk, PI 5w): moderate reduction
- No-Observed-Adverse-Effect Level (NOAEL) ([3]; monkey SCI model): 3 mpk
- mCh-positive signals (axon fibers from proliferating/proliferated cells) [4]: traversed the core of the injury site
- AUC(0-inf) ([5]; SD, iv, 1 mg/kg): 164 ± 13.1 ng·h/mL
- Vd/F ([5]; SD, iv, 1 mg/kg): 18.377 ± 2.743 L/kg
- half-life ([5]; SD, iv, 1 mg/kg): 2.1 ± 0.3 h
- AUC(0-inf) ([5]; SD, po, 9 mg/kg): 9120 ± 4130 ng·h/mL
- Vd/F ([5]; SD, po, 9 mg/kg): 19.7 ± 4.34 L/kg
- half-life ([5]; SD, po, 9 mg/kg): 14.6 ± 8.7 h
- AUC(0-t) ([5]; Sprague-Dawley): ~3000 ng·h/mL
- AUC ([5]; Sprague-Dawley, po, 9 mg/kg): 3000 ng·h/mL
- CL/F ([5]; Sprague-Dawley, po, 9 mg/kg): 19 mL/min/kg
- Cmax ([5]; Sprague-Dawley, po, 9 mg/kg): 508 ng/mL
- half-life ([5]; Sprague-Dawley, po, 9 mg/kg): 10.8 h
- passive avoidance test ([6]; 1 mg/kg and 10 mg/kg, repeated administration for 2 weeks, vs APP/PS1 control group): statistically significant cognitive function improvement effect
- Morris water maze test ([6]; 10 mg/kg for 27 to 37 days): statistically significant improvement
- cognitive function ([6]; 4-week repeated dosing test): statistically significant cognitive function effect
